Experiment [1] has as its system wild-type leaves of Arabidopsis thaliana Col-0. In words: Oxidative burst induced by elf18 peptides from phytopathogenic bacteria. The class given is cell-based. The conditions noted are these: Col-0 leaves; relative to E. coli elf18 positive control.
A further experiment has as its system Wild-type Nb plants. Briefly: Seedling growth inhibition (fresh weight), wild-type Nb. The format is in vivo, Nicotiana benthamiana. Conditions: 0.1-1000 nM peptide, one week. Here is the method: (§1) Wild-type, #16 and #18 Nb as well as Col and efr Arabidopsis thaliana seedlings were grown for one week onMS 1% sucrose agar plates, then transferred to liquid culture and were grown for one week in a serial dilution or elf18 or flg22. Dilutions of 0.1, 1, 10, 100 and 1000 nM were used for all five plant lines. Seedlings (n=4) were blotted on absorbent paper and their fresh weight was measured.

For experiment [2], the system named is wild-type Nb. Briefly: Oxidative burst, luminol-based assay, wild-type Nb leaf discs. The class given is cell-based, Nicotiana benthamiana. Conditions: 100 nM peptide. Here is the method:
(§2) To measure the production of reactive oxygen species (ROS) in leaf tissue, size #1 leaf discs (Nb; n=12, tomato; n=8) were floated overnight in water. Each disc was then transferred to a well containing an assay mix of luminol (200 μM) and peroxidase (20 μg/ml) in 100 μl water. Each well was then treated with either: assay mix, 100 nm elf18, or 100 nm flg22. Luminescence in a 96-well plate was subsequently measured using a Flash Varioskan luminometer.

The test system of a further experiment is EFR (#18) Nb plants. In words: Oxidative burst, luminol-based assay, EFR transgenic Nb leaf discs. The class given is cell-based, Nicotiana benthamiana. Conditions: 100 nM peptide. Here is the method: as §2
In the next experiment the test system is Wild-type Col plants. In words: Seedling growth inhibition (fresh weight), Arabidopsis wild-type Col. The class given is in vivo, Arabidopsis thaliana. The conditions noted are these: 0.1-1000 nM peptide, one week. The procedure:
as §1

Another experiment concerns EFR Nb. Briefly: Callose deposition, aniline blue staining, EFR Nb leaves. The class given is in vivo, Nicotiana benthamiana. Conditions: 100 nM peptide infiltrated, ~16 hours, data not shown. The procedure: A solution of either water, 100 nM elf18, or 100 nM flg22 was used to infiltrate leaves of 4-week old wild-type and EFR Nb. Size #3 leaf discs (n=8) were sampled after ˜16 hours and destained in methanol overnight. Discs were rinsed in water, then left to stain overnight in a solution of 0.05% aniline blue in 50 mM phosphate buffer pH 8.5. Callose deposition at the plant cell periphery could then be viewed under a fluorescence microscope.

The subject of experiment [3] is wild-type Nb. Briefly: Early and late defense marker gene expression by RT-PCR, wild-type Nb seedlings. The class given is in vivo, Nicotiana benthamiana. Conditions: 100 nM peptide, 0, 30, 60, 180 min. The procedure: (§3) Wild-type and #18 Nb were grown for one week on agar plates, then transferred to liquid culture and were grown for a further week. The expression of PAMP-induced genes was monitored over a time course. Seedlings were treated with 100 nM elf18 or flg22 for 0, 30, 60 or 180 minutes, and frozen in liquid nitrogen.
(§4) In brief: four elicited seedlings were thoroughly ground directly in the supplied extraction buffer in Eppendorf tubes using a pestle on an IKA RW 20 stirrer. Total RNAs were extracted using the Qiagen Rneasy Plant Mini kit. The quality of the extracted RNA was confirmed by running an ethidium bromide-stained agarose gel to reveal rRNAs. DNase treatment was performed using TURBO DNA-free kit (Ambion) and the concentration of total RNA was then measured using a Nanodrop. First strand cDNA synthesis was performed using SuperScript II Reverse Transcriptase (Invitrogen) in combination with Oligo(dT) prime on 2 μg of total RNA. One μl of cDNA was used in PCR under the following conditions: 95° C. 2 min; [95° C. 45 sec; 58° C. 45 sec; 55° C. 30 sec; 72° C. 1.5 min]×25; 72° C. 5 min. The genes used as defense markers were: CYP72D2 (cytochrome P450), FLS2 (receptor kinase for flg22), ACRE132 (putative RING finger protein) and WRKY22 (transcription factor). As loading control the constitutively expressed EF-1α housekeeping gene was also amplified.

The subject of another experiment is efr plants. In words: Seedling growth inhibition (fresh weight), Arabidopsis efr. The format is in vivo, Arabidopsis thaliana. The conditions noted are these: 0.1-1000 nM peptide, one week. Here is the method: as §1
A further experiment relates to EFR plants (#18 Nb). In words: Early and late defense marker gene expression by RT-PCR, EFR Nb seedlings. The class given is in vivo, Nicotiana benthamiana. The conditions noted are these: 100 nM peptide, 0, 30, 60, 180 min. The procedure:
as §3, §4

The test system of experiment [4] is EFR plants (Nb expressing transgenic AtEFR). In words: Seedling growth inhibition (fresh weight), EFR Nb. The conditions noted are these: 0.1-1000 nM peptide, one week. The format is in vivo, Nicotiana benthamiana. Here is the method: as §1
In experiment [5] the test system is primary transformant tomato plants. Briefly: Oxidative burst, luminol-based assay, AtEFR tomato primary transformants. Conditions: 100 nm peptide; ten positive tomato lines; data not shown. The format is cell-based, Solanum lycopersicum. Here is the method: (§5) To measure the production of reactive oxygen species (ROS) in leaf tissue, size #1 leaf discs (Nb; n=12, tomato and potato; n=8) were floated overnight in water. Each disc was then transferred to a well containing an assay mix of luminol (200 μM) and peroxidase (20 μg/ml) in 100 μl water. Each well was then treated with either: assay mix, 100 nm elf18, or 100 nm flg22. Luminescence in a 96-well plate was subsequently measured using a Flash Varioskan luminometer.
The detection of an oxidative burst is a relatively simple and reliable assay for defense activation. Cumulative luminescence was recorded for each plant over a time course of 40 minutes. […] Several other transformants were unable to express functional AtEFR as they give very little response to elf18, yet are able to respond to flg22 elicitation (data not shown). Other transformants, perhaps due to old age, were unable to respond to elf18 or flg22 treatment (data not shown). The 10 positive lines appear to have acquired EF-Tu responsiveness in this assay. Therefore seeds were harvested to grow homozygous lines for use in further assays to confirm of these initial results.

The subject of experiment [6] is transgenic EFR potatoes (Desiree). Briefly: Oxidative burst, luminol-based assay, transgenic EFR potatoes. The format is cell-based, Solanum tuberosum. Conditions: 100 nm peptide; positive potato lines; data not shown. The procedure: as §5
Oxidative burst assays were also conducted with transgenic EFR potatoes (Desiree).

No end group written: not given here.

Here are results for 3 substances from patent US9816103B2, “Methods of enhancing the resistance of plants to bacterial pathogens” (priority 2008, dated 2017).

With “elf18 Xanthomonas campestris pv campestris 8004 and B100: synthetic elf18 peptide derived from EF-Tu of Xanthomonas campestris pv. campestris 8004 and B100 (MARAKFLREKLHVNVGTI; Xanthomonas campestris pv. campestris 8004)”, the “eliciting activity (oxidative burst)” value in [1] was “very low eliciting activity”.

Take “elf18 Pseudomonas syringae pv. syringae DC3000: synthetic elf18 peptide derived from EF-Tu of Pseudomonas syringae DC3000 (pv. tomato per b37) (MAKEKFDRSLPHCNVGTI; ends and bridges not checked)”: the “eliciting activity (oxidative burst)” value in experiment [1] is given as “very low eliciting activity”.

Regarding “elf18: EF-Tu epitope elf18: region of 18 amino-acids at the N-acetylated terminus of eubacterial EF-Tu recognized by EFR (Ac-MARAKFLREKLHVNVGTI)”, the “seedling growth inhibition (fresh weight)” value in the experiment with Wild-type Nb plants is reported as “able to grow in the presence of up to 1000 nM elf18”; in the experiment on Wild-type Col plants it was “decreasing growth as elf18 concentration increases”; in the experiment with efr plants, “insensitive”; in experiment [4], “responsive”. In addition, the “release of reactive oxygen species (luminescence)” value with wild-type Nb [2] is “never revealed a burst of ROS”; in the experiment on EFR (#18) Nb plants it was “peak of luminescence corresponding to a burst of ROS”. Further, the callose deposition with EFR Nb is recorded as “stronger response”. In addition, the “defense marker gene induction” value is “unable to elicit a significant amount of expression” with wild-type Nb [3] and “marker gene expression which is at least as strong as under flg22 treatment” in the experiment with EFR plants (#18 Nb). The “burst of ROS (cumulative luminescence over 40 minutes)” value in experiment [5] was “considerable burst of ROS”. The “burst of ROS” value in [6] is “considerable burst of ROS”.
